The results in this text go back to ChEMBL document CHEMBL4732150 (J Med Chem, 2021).

Data set [1] can be described thus: Drug metabolism in Beagle dog liver microsomes assessed as 3,3-dideuterio-N-[4-methoxy-2-[methyl-[2-(methylamino)ethyl]amino]-5-[[4-[1-(trideuteriomethyl)indol-3-yl]pyrimidin-2-yl]amino]phenyl]prop-2-enamide metabolite formation preincubated for 10 mins under shaking condition followed by NADPH generating system addition and measured up to 60 mins by LC-MS/MS analysis. The format is ADME, Canis lupus familiaris, Microsome. The note with it: 1 h, time <=70 min. (Liver microsomes are vesicles of endoplasmic reticulum, rich in cytochrome P450 enzymes.)

Data set [2] in a line: Drug metabolism in Sprague-Dawley rat liver microsomes assessed as 3,3-dideuterio-N-[4-methoxy-2-[methyl-[2-(methylamino)ethyl]amino]-5-[[4-[1-(trideuteriomethyl)indol-3-yl]pyrimidin-2-yl]amino]phenyl]prop-2-enamide metabolite formation preincubated for 10 mins under shaking condition followed by NADPH generating system addition and measured up to 60 mins by LC-MS/MS analysis. Format: ADME, Microsome. The following applies: 1 h, time <=70 min.

Data set [3] is described as follows: Tmax in Sprague-Dawley rat at 6 mg/kg/day, IG administered for 7 consecutive days by LC-MS/MS analysis. The format is ADME, organism-based. The note with it: in vivo, po, time 7 day.
Data set [4] is described as follows: Half life in CD1 mouse liver microsomes preincubated for 10 mins under shaking condition followed by NADPH generating system addition and measured up to 60 mins by LC-MS/MS analysis.
A short description of data set [5]: Half life in Sprague-Dawley rat liver microsomes preincubated for 10 mins under shaking condition followed by NADPH generating system addition and measured up to 20 mins by LC-MS/MS analysis.
Data set [6] is described as follows: Half life in Beagle dog liver microsomes preincubated for 10 mins under shaking condition followed by NADPH generating system addition and measured up to 60 mins by LC-MS/MS analysis.
The nature of data set [7]: Half life in cynomolgus monkey liver microsomes preincubated for 10 mins under shaking condition followed by NADPH generating system addition and measured up to 60 mins by LC-MS/MS analysis.
Data set [8] can be described thus: Intrinsic clearance in Sprague-Dawley rat liver microsomes preincubated for 10 mins under shaking condition followed by NADPH generating system addition and measured up to 60 mins by LC-MS/MS analysis. Format: ADME, Microsome. The following applies: 1 h, time <=70 min.
A short description of data set [9]: Intrinsic clearance in cynomolgus monkey liver microsomes preincubated for 10 mins under shaking condition followed by NADPH generating system addition and measured up to 60 mins by LC-MS/MS analysis. The note with it: 1 h, time <=70 min. The format is ADME, Macaca fascicularis, Microsome.
A short description of data set [10]: Intrinsic clearance in human liver microsomes preincubated for 10 mins under shaking condition followed by NADPH generating system addition and measured up to 60 mins by LC-MS/MS analysis. Format: ADME, Microsome. The note with it: 1 h, time <=70 min.
Data set [11] in a line: Drug metabolism in Sprague-Dawley rat liver microsomes assessed as 3,3-dideuterio-N-[2-(2-dimethylaminoethylamino)-4-methoxy-5-[[4-[1-(trideuteriomethyl)indol-3-yl]pyrimidin-2-yl]amino]phenyl]prop-2-enamide metabolite formation preincubated for 10 mins under shaking condition followed by NADPH generating system addition and measured up to 60 mins by LC-MS/MS analysis. Format: ADME, Microsome. The note with it: 1 h, time <=70 min.

Data set [12] can be described thus: Oral bioavailability in Sprague-Dawley rat at 2 mg/kg, IG administered as single dose and measured upto 24 hrs by LC-MS/MS analysis. The format is ADME, organism-based. The note with it: in vivo.
Another data set has as its target T1, Cytochrome P450 1A2 (Homo sapiens, UniProt P05177).
T1 sequence (P05177 whole entry): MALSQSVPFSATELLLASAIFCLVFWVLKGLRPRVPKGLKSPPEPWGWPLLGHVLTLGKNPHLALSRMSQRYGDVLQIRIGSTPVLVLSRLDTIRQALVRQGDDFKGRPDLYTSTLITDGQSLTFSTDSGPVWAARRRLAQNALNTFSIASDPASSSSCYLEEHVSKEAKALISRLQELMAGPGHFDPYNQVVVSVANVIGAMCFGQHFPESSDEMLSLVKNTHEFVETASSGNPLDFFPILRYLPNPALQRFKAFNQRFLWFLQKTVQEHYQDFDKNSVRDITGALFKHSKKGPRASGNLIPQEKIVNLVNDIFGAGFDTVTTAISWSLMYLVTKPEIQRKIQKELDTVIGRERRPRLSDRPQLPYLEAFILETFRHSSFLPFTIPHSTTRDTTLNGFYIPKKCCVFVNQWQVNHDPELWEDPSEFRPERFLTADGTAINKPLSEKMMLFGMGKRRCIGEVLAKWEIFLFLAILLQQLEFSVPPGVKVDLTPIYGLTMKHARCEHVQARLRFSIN
Briefly: Inhibition of CYP1A2 in human liver microsomes using phenacetin as substrate preincubated for 10 mins in presence of NADPH generating system followed by substrate addition and measured after 3 mins by LC-MS/MS analysis. Format: ADME.

Another data set concerns the target T2, Cytochrome P450 2B6 (Homo sapiens, UniProt P20813).
T2 sequence (P20813 whole entry): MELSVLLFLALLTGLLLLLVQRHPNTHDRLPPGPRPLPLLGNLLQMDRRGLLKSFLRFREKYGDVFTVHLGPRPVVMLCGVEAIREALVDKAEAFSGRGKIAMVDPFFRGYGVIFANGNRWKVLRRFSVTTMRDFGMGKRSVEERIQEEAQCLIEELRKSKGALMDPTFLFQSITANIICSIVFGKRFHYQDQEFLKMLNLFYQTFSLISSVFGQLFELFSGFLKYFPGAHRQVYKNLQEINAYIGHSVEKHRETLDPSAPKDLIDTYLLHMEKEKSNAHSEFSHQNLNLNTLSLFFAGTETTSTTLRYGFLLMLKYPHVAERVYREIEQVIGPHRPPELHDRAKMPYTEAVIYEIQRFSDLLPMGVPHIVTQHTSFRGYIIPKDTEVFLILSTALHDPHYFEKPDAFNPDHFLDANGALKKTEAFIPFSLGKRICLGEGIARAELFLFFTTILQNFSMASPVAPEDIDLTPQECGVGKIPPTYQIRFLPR
The experiment in a line: Inhibition of CYP2B6 in human liver microsomes using bupropion as substrate preincubated for 10 mins in presence of NADPH generating system followed by substrate addition and measured after 10 mins by LC-MS/MS analysis. Format: ADME.

Another data set addresses Cytochrome P450 2C9 (Homo sapiens, UniProt P11712). Briefly: Inhibition of CYP2C9 in human liver microsomes using diclofenac as substrate preincubated for 10 mins in presence of NADPH generating system followed by substrate addition and measured after 10 mins by LC-MS/MS analysis. The format is ADME.
Another data set addresses Cytochrome P450 2C19 (Homo sapiens, UniProt P33261). Briefly: Inhibition of CYP2C19 in human liver microsomes using S-mephenytoin as substrate preincubated for 10 mins in presence of NADPH generating system followed by substrate addition and measured after 20 mins by LC-MS/MS analysis. Format: ADME.
The next data set deals with Cytochrome P450 2D6 (Homo sapiens, UniProt P10635). Briefly: Inhibition of CYP2D6 in human liver microsomes using dextromethorphan as substrate preincubated for 10 mins in presence of NADPH generating system followed by substrate addition and measured after 20 mins by LC-MS/MS analysis. The format is ADME.
Chain of Cytochrome P450 2D6 (P10635 whole entry): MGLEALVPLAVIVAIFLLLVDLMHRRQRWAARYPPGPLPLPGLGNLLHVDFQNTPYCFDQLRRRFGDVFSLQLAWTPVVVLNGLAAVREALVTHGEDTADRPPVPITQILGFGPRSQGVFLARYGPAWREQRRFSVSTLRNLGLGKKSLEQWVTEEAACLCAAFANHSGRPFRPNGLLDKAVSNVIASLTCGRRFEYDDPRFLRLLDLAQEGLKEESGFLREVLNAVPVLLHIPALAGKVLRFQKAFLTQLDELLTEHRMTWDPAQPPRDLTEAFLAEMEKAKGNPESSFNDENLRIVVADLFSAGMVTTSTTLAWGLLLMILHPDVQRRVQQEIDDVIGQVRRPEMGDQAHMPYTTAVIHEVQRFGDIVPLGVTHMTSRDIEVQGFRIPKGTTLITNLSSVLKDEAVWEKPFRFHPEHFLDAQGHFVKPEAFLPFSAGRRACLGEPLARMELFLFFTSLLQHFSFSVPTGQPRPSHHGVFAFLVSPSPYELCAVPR
Data set [13] in a line: in vivo. The following applies: Sprague-Dawley, rat, po, 2 mg/kg.
The nature of data set [14]: in vivo. The note with it: Sprague-Dawley, rat, plasma, po, 6 mg/kg.
Data set [15] is described as follows: in vivo. The following applies: Sprague-Dawley, rat, po, 6 mg/kg.
Data set [16] in a line: in vivo. The note with it: Sprague-Dawley, rat, po, 12 mg/kg.
Another data set can be described thus: in vitro. The note with it: human, liver microsomes.

Chain of Cytochrome P450 2C19 (P33261 whole entry): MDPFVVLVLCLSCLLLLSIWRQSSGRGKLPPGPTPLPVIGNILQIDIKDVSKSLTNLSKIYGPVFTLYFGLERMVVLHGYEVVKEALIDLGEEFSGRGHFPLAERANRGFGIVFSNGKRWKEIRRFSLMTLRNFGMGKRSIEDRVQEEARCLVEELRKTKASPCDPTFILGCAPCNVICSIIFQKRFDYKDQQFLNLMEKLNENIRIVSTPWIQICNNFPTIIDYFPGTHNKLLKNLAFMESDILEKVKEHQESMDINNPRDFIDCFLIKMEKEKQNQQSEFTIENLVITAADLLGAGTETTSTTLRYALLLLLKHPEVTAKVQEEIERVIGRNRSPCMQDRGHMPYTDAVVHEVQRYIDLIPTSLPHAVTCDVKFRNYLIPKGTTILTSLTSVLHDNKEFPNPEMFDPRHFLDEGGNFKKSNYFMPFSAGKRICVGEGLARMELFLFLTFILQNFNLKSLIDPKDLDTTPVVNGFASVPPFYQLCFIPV
Chain of Cytochrome P450 2C9 (P11712 whole entry): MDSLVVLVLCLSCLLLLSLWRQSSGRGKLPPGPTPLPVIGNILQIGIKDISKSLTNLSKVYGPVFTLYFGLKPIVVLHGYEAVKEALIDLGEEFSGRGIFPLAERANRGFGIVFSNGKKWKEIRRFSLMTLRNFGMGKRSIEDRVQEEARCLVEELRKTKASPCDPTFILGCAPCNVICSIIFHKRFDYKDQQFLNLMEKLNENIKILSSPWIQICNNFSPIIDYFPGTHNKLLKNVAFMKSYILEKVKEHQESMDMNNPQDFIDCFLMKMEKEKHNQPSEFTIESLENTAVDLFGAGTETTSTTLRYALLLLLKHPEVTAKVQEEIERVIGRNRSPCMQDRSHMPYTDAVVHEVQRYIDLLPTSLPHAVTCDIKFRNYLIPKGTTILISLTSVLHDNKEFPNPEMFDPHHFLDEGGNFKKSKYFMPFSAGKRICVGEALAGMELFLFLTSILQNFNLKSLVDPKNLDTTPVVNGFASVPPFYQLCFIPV

Broadly, the Tmax is the time from dosing to the highest level. For orientation: half-life means the time needed for the level to fall by half in the phase considered. One may read the bioavailability as the share of a dose that reaches the circulation, judged against a reference dose that is usually intravenous. One may read the IC50 as the point on the concentration scale where inhibition reaches its midpoint. The CL/F is clearance divided by bioavailability, as obtained after extravascular dosing. Consider `CS(=O)(=O)O.[2H]C([2H])=CC(=O)Nc1cc(Nc2nccc(-c3cn(C([2H])([2H])[2H])c4ccccc34)n2)c(OC)cc1N(C)CCN(C)C`, for which the Drug metabolism result in data set [1], in data set [2] and in [11] was “Metabolite_Detected” each time. In addition, the Tmax in data set [3] was 4.67 h. The half-life at 1 h in [4] is 0.395 h; in data set [6], 0.377 h; in data set [7] it was 0.427 h; in “in vitro”, 2.4 h. Besides, the half-life at 20 min in data set [5] is 0.577 h. For the same compound, the values for the CLint in data set [8], in [9] and in [10] were 40 µL/min/mg, 54.2 µL/min/mg and 9.6 µL/min/mg, respectively. In addition, the bioavailability in data set [12] is 41.2%. For the same compound, the IC50 is 39.8 µM at Cytochrome P450 1A2; more than 50 µM on Cytochrome P450 2B6; more than 50 µM at Cytochrome P450 2C9; 43 µM at Cytochrome P450 2C19; more than 50 µM on Cytochrome P450 2D6. In “in vivo [13]”, this compound gave a half-life at 24 h of 3.76 h. Further, the half-life at 168 h in the data set “in vivo [14]” is 3.27 h. Besides, the apparent clearance (CL/F) at 168 h in “in vivo [15]” was 325 mL/min/kg. The compound further gave a CL/F at 24 h in “in vivo [16]” of 248 mL/min/kg.
